Experimental findings from US5260447A, “Polyhydroxycyclopentane derivatives, their preparation and their therapeutic use” (Sankyo Company, Limited, priority 1992, dated 1993) are described below.

One data set has as its target β-glucosidase. The data set can be described thus: Inhibitory activity against β-glucosidase (p-nitrophenyl-β-D-glucopyranoside hydrolysis, absorbance at 405 nm). The settings on record: pH 5.6, 37° C., 15 min preincubation, 20 min reaction; enzyme from almonds. Type of data set: biochemical. The source says: Inhibitory activity of 5-amino-1-(hydroxymethyl)cyclopentane-1,2,3,4-tetraol against β-glucosidase
Samples of β-glucosidase (separated from almonds), p-nitrophenyl-β-D-glucopyranoside, deoxynojirimycin and castanospermine used in this experiment were all purchased from Sigma Chemicals Co.
The test compounds used were 5-amino-1-(hydroxymethyl)cyclopentane-1,2,3,4-tetraol [compound (I)], and deoxynojirimycin or castanospermine, both of which are known compounds having this type of activity.
A mixture of 0.01 unit/ml of β-glucosidase and 100 μl of a buffer solution (pH 5.6) comprising 20 mM of citric acid, 40 mM of disodium phosphate and the compound under test was allowed to stand at 37° C. for 15 minutes. At the end of this time, 50 μl of a buffer solution containing 3 mg/ml of p-nitrophenyl-β-D-glucopyranoside were added to the mixture, which was then allowed to react at 37° C. for 20 minutes. 20 μl of a 1M glycine/sodium hydroxide buffer solution (pH 10.4) were added to the reaction mixture, and the quantity of p-nitrophenol liberated was monitored by absorbance at 405 nm. Table 7 lists the concentrations β-glucosidase by 50% (IC50).

The next data set has as its target T1, silkworm trehalase (Bombyx mori, UniProt P32358).
T1 construct: Ten silkworm larvae of the fifth instar (total weight 44 g) were homogenized; from tissue; host or cells: whole silkworm larvae, fifth instar; acetone precipitate of homogenate supernatant
T1 sequence (P32358 16-579): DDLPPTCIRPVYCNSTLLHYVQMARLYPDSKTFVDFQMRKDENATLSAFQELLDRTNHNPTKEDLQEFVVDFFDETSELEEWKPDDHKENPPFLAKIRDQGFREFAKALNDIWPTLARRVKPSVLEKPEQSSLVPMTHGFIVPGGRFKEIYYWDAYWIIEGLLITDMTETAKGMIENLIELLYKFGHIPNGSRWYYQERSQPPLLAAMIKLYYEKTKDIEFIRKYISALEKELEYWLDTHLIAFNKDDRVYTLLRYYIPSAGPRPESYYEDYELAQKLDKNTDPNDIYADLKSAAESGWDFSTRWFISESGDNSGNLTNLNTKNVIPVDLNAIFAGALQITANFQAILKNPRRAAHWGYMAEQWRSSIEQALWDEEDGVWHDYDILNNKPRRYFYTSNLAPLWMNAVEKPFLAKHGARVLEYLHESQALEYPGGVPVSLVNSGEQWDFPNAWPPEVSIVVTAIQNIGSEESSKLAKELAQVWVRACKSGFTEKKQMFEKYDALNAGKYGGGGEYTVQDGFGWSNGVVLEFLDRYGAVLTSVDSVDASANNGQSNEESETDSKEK
The data set can be described thus: Inhibitory activity against silkworm trehalase (crude enzyme from silkworm larvae, glucose determination). The data set is classed as biochemical. As to conditions: pH 5.6, 37° C., 15 min preincubation, 15 min reaction; substrate trehalose; read-out: concentration needed to inhibit the enzyme activity by 50% (IC50), silkworm trehalase (converted). How it is done: Inhibitory activity of trehazolin against silkworm trehalase
Ten silkworm larvae of the fifth instar (total weight 44 g) were homogenized using a Polytrone (trade mark) homogenizer in 120 ml of a buffer solution (pH 5.6) prepared using 20 mM of citric acid and 40 mM of disodium phosphate for 2 minutes, whilst ice-cooling (the same buffer solution was also used hereafter). The homogenized mixture was then centrifuged at a speed of 6,000 rpm for 10 minutes, and the supernatant was separated. 240 ml of acetone were added to 120 ml of the supernatant, whist ice-cooling and stirring, and the resulting mixture was centrifuged at a speed of 9,000 rpm for 20 minutes. The sediment was separated and dissolved in water, and the resulting solution was lyophilized, to give 2.0 g of the crude enzyme.
130 μl of the above buffer solution, 50 μl of a sample solution containing trehazolin at various concentrations and 50 μl of a silkworm enzyme solution prepared as described above and containing 4 mg/ml of the enzyme were placed in a test-tube, and the mixture was shaken on a water bath kept at 37° C. for 15 minutes. […]
The reaction was conducted using glucose C-test Wako (a product of Wako Pure Chemical Industries Ltd.) and 10-fold quantities of the sample solution over that of the standard procedure.

The next data set is described as follows: Solubility. Type of data set: physicochemical.
The next data set addresses T2, rat sucrase (Rattus norvegicus, UniProt P23739).
T2 construct: a brush border membrane enzyme solution of a rat small intestine was prepared from the small intestines; from tissue; host or cells: small intestine brush border membrane, male Wistar rats
The data set can be described thus: Inhibitory activity against rat sucrase (brush border membrane enzyme of rat small intestine, glucose liberated at 492 nm). The data set is classed as biochemical, rat (Wistar strain). The settings on record: pH 6.2, 37°, 20 minutes; substrate sucrose; read-out: concentration required to inhibit the activity of rat sucrase by 50% (IC50) (converted). How it is done:
Inhibitory activity of 2-amino-4-(hydroxymethyl)-3a-5,6,6a-tetrahydro-4H-cyclopent[d]oxazole-4,5,6-triol [compound (II)] against rat sucrase
According to the method of M. Kessler et al. Biochimica et Biophysica Acta, 506, 136-154(1978)], a brush border membrane enzyme solution of a rat small intestine was prepared from the small intestines of three male rats of the Wistar strain and suspended in 3 ml of physiological saline.
A sample of 4-aminoantipyrine (A 4382) was purchased from Sigma Chemical Co., and samples of peroxidase (Grade I) and glucose oxidase (Grade I) were purchased from Boehringer Mannheim Co. A buffer solution (pH 6.2) comprising 20 mM of citric acid and 40 mM of disodium phosphate was used as the diluent in the following experiment.
Each well of a micro-titer plate with 96 wells (a product of Falcon Co.) was filled with 130 μl in all of a mixture which contained 0.2 mg of bovine serum albumin (Sigma, A 7906), 3 units of glucose oxidase, 0.132 unit of peroxidase, 20 μg of 4-aminoantipyrine, 40 μg of phenol, 3 μ mole of sucrose and a test compound. To the well were added 20 μl of 100-fold diluted solution of a brush border membrane enzyme solution of rat small intestine. The mixture was allowed to react at 37° for 20 minutes and the quantity of glucose liberated was monitored by absorbance at 492 nm. […]

T2 sequence (P23739 1014-1841 limits assumed): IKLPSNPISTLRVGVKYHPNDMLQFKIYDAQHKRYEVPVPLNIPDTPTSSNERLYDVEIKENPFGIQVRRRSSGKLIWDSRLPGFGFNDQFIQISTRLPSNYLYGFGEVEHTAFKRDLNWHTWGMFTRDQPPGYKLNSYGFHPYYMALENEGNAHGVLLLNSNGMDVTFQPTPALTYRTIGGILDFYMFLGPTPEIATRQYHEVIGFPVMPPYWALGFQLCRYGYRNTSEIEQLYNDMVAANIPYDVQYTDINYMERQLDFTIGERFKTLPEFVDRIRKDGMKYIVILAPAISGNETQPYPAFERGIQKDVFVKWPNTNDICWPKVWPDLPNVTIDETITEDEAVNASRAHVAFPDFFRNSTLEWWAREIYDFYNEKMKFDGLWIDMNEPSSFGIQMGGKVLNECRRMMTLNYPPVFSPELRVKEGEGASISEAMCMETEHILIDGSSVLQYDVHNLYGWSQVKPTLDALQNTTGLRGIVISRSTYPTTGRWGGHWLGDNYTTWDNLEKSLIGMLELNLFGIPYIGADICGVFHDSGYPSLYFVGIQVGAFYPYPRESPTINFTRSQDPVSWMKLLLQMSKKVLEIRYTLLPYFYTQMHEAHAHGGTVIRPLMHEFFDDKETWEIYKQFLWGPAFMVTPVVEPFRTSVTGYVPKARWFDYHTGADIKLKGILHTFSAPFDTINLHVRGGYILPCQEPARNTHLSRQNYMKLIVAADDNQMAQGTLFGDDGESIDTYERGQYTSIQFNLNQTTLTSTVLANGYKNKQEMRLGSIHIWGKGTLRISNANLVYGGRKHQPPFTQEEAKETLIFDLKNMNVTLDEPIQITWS
T2 sequence (P23739 1-1013 partner limits assumed): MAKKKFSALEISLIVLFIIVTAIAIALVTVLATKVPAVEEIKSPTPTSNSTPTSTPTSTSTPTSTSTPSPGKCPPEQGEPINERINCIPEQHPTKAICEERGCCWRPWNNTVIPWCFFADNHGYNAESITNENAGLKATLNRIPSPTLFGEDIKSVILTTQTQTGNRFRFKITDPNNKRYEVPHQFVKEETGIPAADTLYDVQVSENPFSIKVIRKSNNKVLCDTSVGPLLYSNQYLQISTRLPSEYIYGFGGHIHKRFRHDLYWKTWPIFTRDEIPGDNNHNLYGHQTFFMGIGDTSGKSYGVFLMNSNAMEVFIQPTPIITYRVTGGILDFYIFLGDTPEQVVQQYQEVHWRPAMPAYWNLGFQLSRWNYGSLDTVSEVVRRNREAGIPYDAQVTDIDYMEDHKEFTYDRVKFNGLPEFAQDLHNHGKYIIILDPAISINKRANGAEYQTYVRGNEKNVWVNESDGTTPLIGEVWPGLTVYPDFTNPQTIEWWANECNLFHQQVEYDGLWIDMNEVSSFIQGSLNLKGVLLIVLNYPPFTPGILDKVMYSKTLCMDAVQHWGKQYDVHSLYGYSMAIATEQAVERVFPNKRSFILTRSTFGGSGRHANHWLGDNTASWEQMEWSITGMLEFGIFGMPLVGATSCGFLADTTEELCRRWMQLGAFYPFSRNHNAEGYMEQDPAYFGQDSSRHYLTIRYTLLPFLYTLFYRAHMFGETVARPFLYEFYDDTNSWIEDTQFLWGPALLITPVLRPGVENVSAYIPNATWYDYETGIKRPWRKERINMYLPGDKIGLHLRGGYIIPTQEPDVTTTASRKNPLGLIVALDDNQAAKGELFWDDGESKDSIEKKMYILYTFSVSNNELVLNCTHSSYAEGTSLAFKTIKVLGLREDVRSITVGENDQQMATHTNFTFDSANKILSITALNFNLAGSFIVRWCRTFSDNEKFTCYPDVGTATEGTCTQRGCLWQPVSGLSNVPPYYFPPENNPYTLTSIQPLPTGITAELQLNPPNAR

Turning to `O[C@H]1[C@H](O)[C@@H](O)CN2CC[C@H](O)[C@H]12` [Castanospermine, castanospermine], the “50% inhibitory concentration of β-glucosidase (IC50)” value (from here on “50% inhibitory concentration”) at β-glucosidase came to 4.3 µg/mL.
As for `OCC1OC(NC2=NC3C(O2)C(O)C(O)C3(O)CO)C(O)C(O)C1O` (stereo not drawn) [trehazolin, reference compound], the IC50 on silkworm trehalase is 0.00546 µM. Moreover, in “Solubility”, the Solubility in acetone result is “insoluble”, the Solubility in chloroform entry is reported as “insoluble” and the Solubility in water entry is recorded as “soluble”. Besides, the Solubility in methanol entry in the data set “Solubility” (methanol) was “soluble”.
For `OC[C@H]1NC[C@H](O)[C@@H](O)[C@@H]1O` [Deoxynojirimycin, deoxynojirimycin], the “50% inhibitory concentration” value on β-glucosidase amounted to 15 µg/mL.
Consider `NC1C(O)C(O)C(O)C1(O)CO` (stereo not drawn) [Compound (I), 5-amino-1-(hydroxymethyl)cyclopentane-1,2,3,4-tetraol], for which the “50% inhibitory concentration” value on β-glucosidase was 1.0 µg/mL. Besides, in the data set “Solubility”, the Solubility in acetone result was “insoluble”, the Solubility in chloroform result is listed as “insoluble” and the Solubility in water entry is recorded as “soluble”.
For the compound `NC1=NC2C(O1)C(O)C(O)C2(O)CO` (stereo not drawn) [(II), 2-amino-4-(hydroxymethyl)-3a,5,6,6a-tetrahydro-4H-cyclopent[d]oxazole-4,5,6-triol], in “Solubility”, the Solubility in acetone result is given as “insoluble”, the Solubility in chloroform result is “insoluble” and the Solubility in water result was “soluble”. Besides, at rat sucrase, the IC50 was 88.2 µM.
